Laboratory results: patent publication US20040198810A1 (H. Lundbeck A/S, priority 2001, published 2004)

Experiments:
Type in all cases: in vivo
[1] = test system: primary care patients with major depression disorder; test: 8-week, double-blind, randomised, placebo-controlled, flexible-dose clinical study; settings: Week 1 (p=0.023) to Week 4 (p=0.002), observed cases
Text: (§1) This has i.a. been found in the Chronic Mild Stress model (Willner P., Psychopharmachology 1997, 134, 319-329).
A total of 471 patients were randomised into the study. The all-patient-treated set comprised 469 patients and the full-analysis set comprised 468 patients.
There was an approximately 3 to 1 ratio of women to men in each treatment group, and almost all patients were Caucasian. The mean age was 43 years (SD 11). At baseline, the mean MADRS total score was approximately 29 for the treatment group, which signifies moderate to severely ill patients.

[2] = test system: Chronic Mild Stress model; test: Chronic Mild Stress model; settings: animal models
Text: as §1

[3] = fixed dose studies (MADRS rating scale and Clinical Global Impression); settings: escitalopram in a dose of 10 mg

Structure (SMILES): CN(C)CCC[C@@]1(c2ccc(F)cc2)OCc2cc(C#N)ccc21 [escitalopram, (S)-1-[3-(dimethylamino)propyl]-1-(4-fluorophenyl)-1,3-dihydro-5-isobenzofurancarbonitrile]
- therapeutic effect versus placebo, adjusted mean change in MADRS total score [1]: significantly superior therapeutic effect
- speed of response [2]: faster response than citalopram-racemate
- effect as determined by the MADRS rating scale and Clinical Global Impression (severity as well as improvement) [3]: at least same effect as citalopram in a dose of 40 mg
